Key:
bedstraw = assay: Test B pre/postemergence bedstraw; format: in vivo, Galium aparine
Method in brief: (§1)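 Response is a visual 0-to-10 score relative to untreated plants, where 0 means no effect and 10 means complete control, taken twelve to sixteen days after application. Treatments went onto soil at planting and onto foliage of 1- to 4-leaf plants, using a surfactant-containing non-phytotoxic solvent.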

blackgrass = assay: Test B pre/postemergence blackgrass; format: in vivo, Alopecurus myosuroides
Method in brief: as §1

surinam grass = assay: Test B pre/postemergence surinam grass; format: in vivo, Brachiaria decumbens
Method in brief: as §1

cocklebur = assay: Test B pre/postemergence cocklebur; format: in vivo, Xanthium strumarium
Method in brief: as §1

corn = assay: Test B pre/postemergence corn; format: in vivo, Zea mays
Method in brief: as §1

crabgrass = assay: Test B pre/postemergence crabgrass; format: in vivo, Digitaria sanguinalis
Method in brief: as §1

rape = assay: Test B pre/postemergence rape; format: in vivo, Brassica napus
Method in brief: as §1

soybean = assay: Test B pre/postemergence soybean; format: in vivo, Glycine max
Method in brief: as §1

sugar beet = assay: Test B pre/postemergence sugar beet; format: in vivo, Beta vulgaris
Method in brief: as §1

velvetleaf = assay: Test B pre/postemergence velvetleaf; format: in vivo, Abutilon theophrasti
Method in brief: as §1

wheat = assay: Test B pre/postemergence wheat; format: in vivo, Triticum aestivum
Method in brief: as §1

wild oat = assay: Test B pre/postemergence wild oat; format: in vivo, Avena fatua
Method in brief: as §1

purple nutsedge = assay: Test B pre/postemergence purple nutsedge; format: in vivo, Cyperus rotundus
Method in brief: as §1

rice = assay: Test B flood test rice; format: in vivo, Oryza sativa
Method in brief: (§2)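 Plants were grown to the 2-leaf stage before treatment with test chemical, then held in a greenhouse for twelve to sixteen days. Injury was visually rated against untreated controls on a 0–10 scale, where 0 is no effect and 10 is complete control.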

smallflower flatsedge = assay: Test B flood test smallflower flatsedge; format: in vivo, Cyperus difformis
Method in brief: as §2

duck salad = assay: Test B flood test duck salad; format: in vivo, Heteranthera limosa
Method in brief: as §2

bamyardgrass = assay: Test B flood test barnyardgrass; format: in vivo, Echinochloa crus-galli
Method in brief: as §2

[1] = Postemergence, Rate 125 g/ha, scale of 0 to 10 where 0 is no effect and 10 is complete control
[2] = Preemergence, Rate 62 g/ha, scale 0 to 10 (0 no effect, 10 complete control)
[3] = Preemergence, Rate 125 g/ha, 0 is no effect, 10 is complete control
[4] = Preemergence, Rate 250 g/ha, scale 0 to 10, 0 is no effect, 10 is complete control
[5] = Preemergence, Rate 500 g/ha, scale 0 to 10 (0 no effect, 10 complete control)
[6] = Rate 62 g/ha, Postemergence, scale of 0 to 10 where 0 is no effect and 10 is complete control
[7] = Rate 250 g/ha, Postemergence, scale 0 to 10, 0 is no effect, 10 is complete control
[8] = Rate 500 g/ha, Postemergence, scale 0 to 10
[9] = Postemergence (flood test species), Rate 125 g/ha, scale of 0 to 10 where 0 is no effect and 10 is complete control
[10] = Rate 62 g/ha, Postemergence section, flood test species, scale of 0 to 10 where 0 is no effect and 10 is complete control
[11] = Rate 250 g/ha, Postemergence (flood test), scale 0 to 10, 0 is no effect, 10 is complete control
[12] = Rate 500 g/ha, listed under Postemergence (flood test species), scale 0 to 10

CC(C)N(C(=O)n1oc(=O)n(CCCl)c1=O)c1ccc(F)cc1 [Compound 148]
8: Crabgrass plant response rating (crabgrass; [1]) | Crabgrass plant response rating (0 to 10 scale) (crabgrass; [3]) | Crabgrass plant response rating (crabgrass; [6]) | Plant response rating, Crabgrass (crabgrass; [7]) | Sugarbeets plant response rating (sugar beet; [4]) | Velvetleaf plant response rating (velvetleaf; [4]) | Velvetleaf plant response rating (velvetleaf; [5]) | Wild oats plant response rating (wild oat; [5])
5: Bedstraw plant response rating (bedstraw; [1]) | Blackgrass plant response rating (blackgrass; [6]) | B. signalgrass plant response rating (0 to 10 scale) (surinam grass; [3]) | Plant response rating, B. signalgrass (surinam grass; [7]) | Crabgrass plant response rating (crabgrass; [2]) | Soybean plant response rating (soybean; [8]) | Wheat plant response rating (wheat; [8]) | Plant response rating, Wild oats (wild oat; [7]) | Wild oats plant response rating (wild oat; [8])
4: Blackgrass plant response rating (blackgrass; [2]) | Blackgrass plant response rating (0 to 10 scale) (blackgrass; [3]) | Rape plant response rating (rape; [8]) | Soybean plant response rating (soybean; [1]) | Soybean plant response rating (soybean; [6]) | Plant response rating, Soybean (soybean; [7]) | Sugarbeets plant response rating (sugar beet; [2]) | Plant response rating, Sugarbeets (sugar beet; [7]) | Sugarbeets plant response rating (sugar beet; [8]) | Barnyardgrass plant response rating (bamyardgrass; Rate 500 g/ha, listed under Postemergence (flood test species), scale 0 to 10, 0 no effect, 10 complete control)
7: Blackgrass plant response rating (blackgrass; [1]) | Blackgrass plant response rating (blackgrass; [4]) | Plant response rating, Blackgrass (blackgrass; [7]) | Blackgrass plant response rating (blackgrass; [8]) | B. signalgrass plant response rating (surinam grass; [4]) | B. signalgrass plant response rating (surinam grass; [5]) | B. signalgrass plant response rating (surinam grass; Rate 500 g/ha, Postemergence, scale of 0 to 10 where 0 is no effect and 10 is complete control)
0: Bedstraw plant response rating (bedstraw; [2]) | Bedstraw plant response rating (0 to 10 scale) (bedstraw; [3]) | Bedstraw plant response rating (bedstraw; [4]) | B. signalgrass plant response rating (surinam grass; [2]) | B. signalgrass plant response rating (surinam grass; [6]) | Cocklebur plant response rating (cocklebur; [1]) | Cocklebur plant response rating (0 to 10 scale) (cocklebur; [3]) | Cocklebur plant response rating (cocklebur; [4]) | Cocklebur plant response rating (cocklebur; [5]) | Cocklebur plant response rating (cocklebur; [6]) | Plant response rating, Cocklebur (cocklebur; [7]) | Corn plant response rating (corn; [1]) | Corn plant response rating (corn; [2]) | Corn plant response rating (0 to 10 scale) (corn; [3]) | Corn plant response rating (corn; [4]) | Corn plant response rating (corn; [5]) | Corn plant response rating (corn; [6]) | Plant response rating, Corn (corn; [7]) | Corn plant response rating (corn; [8]) | Rape plant response rating (rape; [2]) | Rape plant response rating (0 to 10 scale) (rape; [3]) | Soybean plant response rating (soybean; [2]) | Soybean plant response rating (0 to 10 scale) (soybean; [3]) | Soybean plant response rating (soybean; [4]) | Soybean plant response rating (soybean; [5]) | Velvetleaf plant response rating (velvetleaf; [1]) | Velvetleaf plant response rating (velvetleaf; [2]) | Velvetleaf plant response rating (velvetleaf; [6]) | Plant response rating, Velvetleaf (velvetleaf; [7]) | Wheat plant response rating (wheat; [2]) | Wheat plant response rating (wheat; [6]) | Wild oats plant response rating (wild oat; [6]) | Nutsedge plant response rating (purple nutsedge; [1]) | Nutsedge plant response rating (purple nutsedge; [2]) | Nutsedge plant response rating (0 to 10 scale) (purple nutsedge; [3]) | Nutsedge plant response rating (purple nutsedge; [4]) | Nutsedge plant response rating (purple nutsedge; [5]) | Nutsedge plant response rating (purple nutsedge; [6]) | Plant response rating, Nutsedge (purple nutsedge; [7]) | Nutsedge plant response rating (purple nutsedge; [8]) | Rice plant response rating (rice; [9]) | Rice plant response rating (rice; [10]) | Plant response rating, Rice (rice; [11]) | Rice plant response rating (rice; [12]) | S. Flatsedge plant response rating (smallflower flatsedge; [9]) | S. Flatsedge plant response rating (smallflower flatsedge; [10]) | Plant response rating, S. Flatsedge (smallflower flatsedge; [11]) | Ducksalad plant response rating (duck salad; [9]) | Ducksalad plant response rating (duck salad; [10]) | Plant response rating, Ducksalad (duck salad; [11]) | Ducksalad plant response rating (duck salad; [12]) | Barnyardgrass plant response rating (bamyardgrass; [9]) | Barnyardgrass plant response rating (bamyardgrass; [10]) | Plant response rating, Barnyardgrass (bamyardgrass; [11])
9: Blackgrass plant response rating (blackgrass; [5]) | Crabgrass plant response rating (crabgrass; [4]) | Crabgrass plant response rating (crabgrass; [5]) | Crabgrass plant response rating (crabgrass; [8]) | Rape plant response rating (rape; [5])
2: Bedstraw plant response rating (bedstraw; [5]) | Bedstraw plant response rating (bedstraw; [6]) | Rape plant response rating (rape; [1]) | Sugarbeets plant response rating (sugar beet; [6]) | S. Flatsedge plant response rating (smallflower flatsedge; [12])
1: Rape plant response rating (rape; [6]) | Velvetleaf plant response rating (velvetleaf; [8]) | Wheat plant response rating (wheat; [1]) | Wild oats plant response rating (wild oat; [1])
6: Plant response rating, Bedstraw (bedstraw; [7]) | Bedstraw plant response rating (bedstraw; Rate 500 g/ha, Postemergence, scale 0 to 10, 0 no effect, 10 complete control) | Rape plant response rating (rape; [4]) | Sugarbeets plant response rating (0 to 10 scale) (sugar beet; [3]) | Velvetleaf plant response rating (0 to 10 scale) (velvetleaf; [3]) | Wheat plant response rating (wheat; [5]) | Wild oats plant response rating (wild oat; [2]) | Wild oats plant response rating (0 to 10 scale) (wild oat; [3]) | Wild oats plant response rating (wild oat; [4])
10: Sugarbeets plant response rating (sugar beet; [5])
3: B. signalgrass plant response rating (surinam grass; [1]) | Cocklebur plant response rating (cocklebur; [8]) | Plant response rating, Rape (rape; [7]) | Sugarbeets plant response rating (sugar beet; [1]) | Wheat plant response rating (0 to 10 scale) (wheat; [3]) | Wheat plant response rating (wheat; [4]) | Plant response rating, Wheat (wheat; [7])

From US6737383B1, “Herbicidal oxadiazolidines” (priority 1999, dated 2004)
